Read-outs that look alike come from different tables or passages of the source.
What was measured:
[1] = test system: B16F10-hClaudin18.2 cells; assay: Immunogenic cell death of B16F10-hClaudin18.2 cells (Calreticulin/PI FACS); format: cell-based; conditions: small molecular drug load 10 nM, 48 hours
Protocol: The B16F10-hClaudin18.2 cells were resuscitated and cultured in a medium of DMEM (Thermo, cat #: 10569044)^+10% FBS (Thermo, Cat #: 10099-141C)+0.5 μg/mL Puromycin to subject to adherent culture at 37° C. in 5% CO2 incubator. When the cell confluence was greater than 80%, the cells were passaged at a ratio of 1:10 to 1:20 every 3-4 days.
When the cells grew to a confluence of about 80%, the cells were digested by a digestive solution of recombinant enzyme (TrypLE™ Express Enzyme, Thermo, cat #: 12605028). Then the cells were resuspended with DMEM+10% FBS, and an appropriate volume was taken for counting. The cell density was adjusted to 1×10^4 cells/mL, and inoculated into 96-well cell plate at 100 μL/well to culture overnight at 37° C. in 5% CO2 incubator. The next day, the ADC drug was diluted with DMEM+10% FBS medium to a final concentration of 750 nM, the small molecule toxin Exatecan was diluted to a final concentration of 10 nM, and sample concentration of 0 was set as blank control. The diluted samples were respectively added to 96-well cell culture plate containing cells at 100 μL/well to incubate at 37° C. in 5% CO2 incubator for 48 hours. […]

[2] = test system: MC38-hClaudin18.2 cells; assay: In vitro tumor cell killing activity, MC38-hClaudin18.2 cell line (AlamarBlue); format: cell-based, mouse
Protocol: 9D1 antibody-drug conjugates prepared in the previous Experimental Examples and Comparative Examples were used for performing in vitro killing test on MC38 cell lines stably expressing human Claudin18.2. MC38-hClaudin18.2 cells were inoculated into a 96-well cell culture plate at 3000 cells/well, adding gradient diluted 9D1 ADCs next day to culture for 48-72 hours. The fluorescence values of each experimental well were detected by AlamarBlue reagent (ThermoFisher, item number DAL1100), and the cell viability was calculated.
When the cell confluence was greater than 80%, the cells were passaged at a ratio of 1:10 to 1:20 every 3 days.
MC38-hClaudin18.2 cells were digested by a digestive solution of recombinant enzyme (TrypLE™ Express Enzyme). […] The cell density was adjusted to 3×10^4 cells/mL, inoculating into 96-well cell culture plate at 100 μL/well. The cells were cultured overnight at 37° C. in 5% C02 incubator. The next day, the test drug was diluted 10 times in a series with a total of 7-8 concentration points, simultaneously setting a blank control with a sample concentration of 0. The diluted sample was added to 96-well cell culture plate containing cells at 100 μL/well, then incubating at 37° C. in 5% CO2 incubator for 48-72 hours. 20 μL of AlamarBlue detection reagent was added to each well, incubating at 37° C. for 4-6 hours, the fluorescence signal intensity was detected on a multifunctional enzyme-linked immunosorbent assay (ELISA) instrument with an excitation wavelength of 560 nm and an emission wavelength of 590 nm.
The cell viability of the blank control was set to 100%, and the cell viability (%) of the experimental well was calculated by the following formula: […]
The detected average cell viability was takedn as the y-axis, a sigmoid dose response (Variable Slope) method (GraphPad Prism software, GraphPad Software, San Diego, California) was used for nonlinear regression to obtain the inhibitory effect curves of cell proliferation, and the corresponding IC50 values (half maximum inhibition concentration) were calculated. […]

[3] = test system: NUGC4-hClaudin18.2 cells; assay: In vitro tumor cell killing activity, NUGC4-hClaudin18.2 cell line (CCK-8); format: cell-based; conditions: Homo sapiens, 120 h, read-out: IC50 values (nM)
Protocol: When the cell confluence was greater than 80%, the cells were passaged at a ratio of 1:3 to 1:10 every 3-4 days.
NUGC4-hClaudin18.2 cells were digested by a digestive solution of recombinant enzyme (TrypLE™ Express Enzyme). […] The cell density was adjusted to 3×10^4 cells/mL, inoculating into 96-well cell culture plate at 100 μL/well. The cells were cultured overnight at 37° C. in 5% CO2 incubator. The next day, 9D1 ADC and small molecular toxin were diluted 5 times in a series from 1000 nM (final concentration, 500 nM) with a total of 7-8 concentration points, simultaneously setting a negative control with a sample concentration of 0, and a blank control containing only medium without cells. The diluted sample was added to 96-well cell culture plate containing cells at 100 μL/well (two duplicated wells), then incubating at 37° C. in 5% CO2 incubator for 120 hours. 20 μL of CCK-8 detection reagent (Dongren Chemical, CAS #CK04) was added to each well, incubating at 37° C. for 3-4 hours. The OD values of each well in the ELISA plate were measured at a wavelength of 450 nm and a reference wavelength of 630 nm on a multifunctional enzyme-linked immunosorbent assay (ELISA) reader, for each well, OD value=0D450 nm−OD630 nm. The cell viability of the negative control was set to 100%, and the cell viability (%) of the experimental wells was calculated according to the following formula. […]

[4] = test system: HEK293-hClaudin18.2 cells; assay: In vitro cell killing activity, HEK293-hClaudin18.2 cell line (AlamarBlue); format: cell-based
Protocol: HEK293-hClaudin18.2 cells were cultured in DMEM medium containing 10% FBS, supplemented with 250 μg/mL G418 to subject to adherent culture at 37° C. in 5% CO2 incubator. When the cell confluence was greater than 80%, the cells were passaged at a ratio of 1:20 to 1:40 every 3 days.
HEK293-hClaudin18.2 cells were digested by a digestive solution of recombinant enzyme (TrypLE™ Express Enzyme). After counting, an appropriate amount of cells were taken to resuspend with DMEM+10% FBS. The cell density was adjusted to 2×10^4 cells/mL, inoculating into 96-well cell culture plate at 100 μL/well. The cells were cultured overnight at 37° C. in 5% CO2 incubator. The next day, 9D1 ADC and small molecular toxin were diluted 10 times in a series from 1000 nM (final concentration, 500 nM) with a total of 7-8 concentration points, simultaneously setting a negative control with a sample concentration of 0, and a blank control containing only same volume (200 μL/well) of medium without cells. The diluted sample was added to 96-well cell culture plate containing cells at 100 μL/well (two duplicated wells), then incubating at 37° C. in 5% CO2 incubator for 72 hours. The cell viability was detected by the AlamarBlue detection method mentioned above, then processing data to calculate the IC50 values, and the results are shown in Table 5 below.

[5] = test system: MC38 hClaudin18.2 tumor (high expression of p-gp); assay: Pharmacodynamics in p-gp mediated drug-resistant tumor bearing mouse model; format: in vivo; conditions: in words; ADC 10 mg/kg i.p. QW × 2, Tariquidar p.o. QD × 10
Protocol: Modeling and administration of tumor bearing mice: BALB/c Nude mice (female, 5-6 week old) were subcutaneously inoculated with MC38 hClaudin18.2 cells (1×10^6 cells in […]) on the ventral side. When the tumor volume increased to about 120 mm^3, the mice were randomly divided into groups and administered according to Table 10. The tumor and body weight were measured twice a week to calculate the tumor volumes (TV, mm^3) and plot the tumor growth curves. TV (mm^3)=(L×W^2)/2, wherein L represents tumor length, and W represents tumor width. GraphPad Prism software (GraphPad Software, San Diego, California) and XY mode were selected to plot the tumor growth curves and weight curves of mice, and the tumor volumes and weights were represented as mean±standard error.

Row | SMILES | ratio of Calreticulin(+)/PI(−) cells [1] | IC50 ([2]; Mus musculus, read-out: IC50 values (nM), MC38-hClaudin18.2 cells, 48-72 hours, AlamarBlue) [nM] | IC50 ([2]; read-out: IC50 values, MC38-hClaudin18.2 cells, 48-72 hours, AlamarBlue) [nM] | IC50 [3] [nM] | IC50 ([4]; 72 h, read-out: IC50 values (nM), HEK293-hClaudin18.2 cells, 72 hours, AlamarBlue) [nM] | IC50 ([4]; read-out: IC50 values, HEK293-hClaudin18.2 cells, 72 hours, AlamarBlue) [nM] | tumor inhibitory effect [5]
1 | CC[C@@]1(O)C(=O)OCc2c1cc1n(c2=O)Cc2c-1nc1cc(F)c(C)c3c1c2[C@@H](NC(=O)CO)CC3 [Dxd] | significantly raised |  |  |  |  |  | 
2 | CC[C@@]1(O)C(=O)OCc2c1cc1n(c2=O)Cc2c-1nc1cc(F)c(C)c3c1c2[C@@H](N)CC3 [Exatecan] | significantly raised | 4.1 | 4.1 | 2.01 | 0.51 | 0.508 | 
3 | COc1cc2c(cc1OC)CN(CCc1ccc(NC(=O)c3cc(OC)c(OC)cc3NC(=O)c3cnc4ccccc4c3)cc1)CC2 [Tariquidar] |  |  |  |  |  |  | has no tumor inhibitory effect
